Here are results for 21 compounds from US9266892B2, “Fused pyrazoles as FGFR inhibitors” (Incyte Corporation, priority 2012, dated 2016).

What all share (format): biochemical
For test [1], the target named is T1, FGFR1 (Homo sapiens, UniProt P11362).
T1 construct: purchased Millipore or Invitrogen
Kind of test: FGFR Enzymatic Assay (FRET peptide phosphorylation), FGFR1. The settings on record: FGFR1 0.02 nM, ATP 210 μM. Here is the method: (§1) The inhibitor potency of the Example compounds was measured in an enzyme assay that measures peptide phosphorylation using FRET measurements to detect product formation. Inhibitors were serially diluted in DMSO and a volume of 0.5 μL was transferred to the wells of a 384-well plate. For FGFR3, a 10 μL volume of FGFR3 enzyme (Millipore) diluted in assay buffer (50 mM HEPES, 10 mM MgCl2, 1 mM EGTA, 0.01% Tween-20, 5 mM DTT, pH 7.5) was added to the plate and pre-incubated for 5-10 minutes. Appropriate controls (enzyme blank and enzyme with no inhibitor) were included on the plate. The assay was initiated by the addition of a 10 μL solution containing biotinylated EQEDEPEGDYFEWLE peptide substrate (SEQ ID NO: 1) and ATP (final concentrations of 500 nM and 140 μM respectively) in assay buffer to the wells. The plate was incubated at 25° C. for 1 hr. The reactions were ended with the addition of 10 μL/well of quench solution (50 mM Tris, 150 mM NaCl, 0.5 mg/mL BSA, pH˜7.8, 30 mM EDTA with Perkin Elmer Lance Detection Reagents at 3.75 nM Eu-antibody PY20 and 180 nM APC-Streptavidin). The plate was allowed to equilibrate for 1 hour before scanning the wells on a PheraStar plate reader (BMG Labtech). The enzymes were purchased from Millipore or Invitrogen.
(§2) FGFR1 and FGFR2 were measured under equivalent conditions with the following changes in enzyme and ATP concentrations: FGFR1, 0.02 nM and 210 μM, respectively and FGFR2, 0.01 nM and 100 μM, respectively.
(§3) GraphPad prism3 was used to analyze the data. The IC50 values were derived by fitting the data to the equation for a sigmoidal dose-response with a variable slope. Y=Bottom+(Top−Bottom)/(1+10^((Log IC50−X)*HillSlope)) where X is the logarithm of concentration and Y is the response.

The target of test [2] is T2, FGFR2 (Homo sapiens, UniProt P21802).
T2 construct: purchased Millipore or Invitrogen
T2 sequence (P21802 22-821): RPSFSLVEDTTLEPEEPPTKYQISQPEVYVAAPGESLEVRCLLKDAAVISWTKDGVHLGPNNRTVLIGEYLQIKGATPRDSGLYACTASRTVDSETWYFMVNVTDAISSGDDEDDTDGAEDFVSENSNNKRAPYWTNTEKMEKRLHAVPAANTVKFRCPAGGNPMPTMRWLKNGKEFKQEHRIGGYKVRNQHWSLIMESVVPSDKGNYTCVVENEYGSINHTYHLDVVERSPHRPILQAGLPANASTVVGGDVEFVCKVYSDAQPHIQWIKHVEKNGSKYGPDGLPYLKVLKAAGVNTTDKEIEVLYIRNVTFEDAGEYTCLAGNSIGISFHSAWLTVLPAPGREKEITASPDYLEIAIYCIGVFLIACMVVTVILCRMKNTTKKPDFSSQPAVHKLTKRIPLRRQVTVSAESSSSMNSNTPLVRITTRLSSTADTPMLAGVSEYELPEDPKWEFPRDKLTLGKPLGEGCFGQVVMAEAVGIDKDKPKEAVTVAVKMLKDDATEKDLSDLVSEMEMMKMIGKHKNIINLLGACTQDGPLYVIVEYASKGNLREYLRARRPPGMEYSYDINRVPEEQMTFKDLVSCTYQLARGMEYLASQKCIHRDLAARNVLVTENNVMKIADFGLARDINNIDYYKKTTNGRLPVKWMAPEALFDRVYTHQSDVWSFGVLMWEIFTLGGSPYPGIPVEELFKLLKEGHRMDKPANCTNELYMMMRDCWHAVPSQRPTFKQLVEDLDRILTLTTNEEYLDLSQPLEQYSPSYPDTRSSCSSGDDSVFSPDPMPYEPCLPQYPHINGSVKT
Kind of test: FGFR Enzymatic Assay (FRET peptide phosphorylation), FGFR2. The settings on record: FGFR2 0.01 nM, ATP 100 μM. Here is the method:
as §1, §2, §3

The target in test [3] is T3, FGFR3 (Homo sapiens, UniProt P22607).
T3 construct: purchased Millipore
T3 sequence (P22607 23-806): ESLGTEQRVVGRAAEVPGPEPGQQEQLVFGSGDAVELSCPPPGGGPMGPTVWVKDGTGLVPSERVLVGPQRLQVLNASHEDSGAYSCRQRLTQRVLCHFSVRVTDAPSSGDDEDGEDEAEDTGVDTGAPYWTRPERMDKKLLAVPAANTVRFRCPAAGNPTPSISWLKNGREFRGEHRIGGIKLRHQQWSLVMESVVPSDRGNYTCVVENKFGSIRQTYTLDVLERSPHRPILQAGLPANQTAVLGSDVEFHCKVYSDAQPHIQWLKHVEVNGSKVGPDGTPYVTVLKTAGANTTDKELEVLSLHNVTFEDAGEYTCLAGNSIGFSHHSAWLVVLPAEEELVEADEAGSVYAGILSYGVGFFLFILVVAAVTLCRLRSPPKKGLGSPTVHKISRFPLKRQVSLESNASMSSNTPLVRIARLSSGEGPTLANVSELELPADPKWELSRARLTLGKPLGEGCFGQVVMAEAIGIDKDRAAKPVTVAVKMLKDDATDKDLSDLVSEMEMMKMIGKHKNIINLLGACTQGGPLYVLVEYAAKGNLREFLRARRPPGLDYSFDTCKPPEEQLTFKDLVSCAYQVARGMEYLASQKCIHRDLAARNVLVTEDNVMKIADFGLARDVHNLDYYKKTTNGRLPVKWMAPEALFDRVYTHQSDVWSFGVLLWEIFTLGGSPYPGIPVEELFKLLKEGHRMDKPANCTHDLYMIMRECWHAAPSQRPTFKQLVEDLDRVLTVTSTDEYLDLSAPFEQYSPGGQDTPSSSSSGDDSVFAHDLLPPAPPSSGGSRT
Briefly: FGFR Enzymatic Assay (FRET peptide phosphorylation), FGFR3. The settings on record: ATP 140 μM, 25° C. for 1 hr. Here is the method:
as §1, §3

T1 sequence (P11362 22-822): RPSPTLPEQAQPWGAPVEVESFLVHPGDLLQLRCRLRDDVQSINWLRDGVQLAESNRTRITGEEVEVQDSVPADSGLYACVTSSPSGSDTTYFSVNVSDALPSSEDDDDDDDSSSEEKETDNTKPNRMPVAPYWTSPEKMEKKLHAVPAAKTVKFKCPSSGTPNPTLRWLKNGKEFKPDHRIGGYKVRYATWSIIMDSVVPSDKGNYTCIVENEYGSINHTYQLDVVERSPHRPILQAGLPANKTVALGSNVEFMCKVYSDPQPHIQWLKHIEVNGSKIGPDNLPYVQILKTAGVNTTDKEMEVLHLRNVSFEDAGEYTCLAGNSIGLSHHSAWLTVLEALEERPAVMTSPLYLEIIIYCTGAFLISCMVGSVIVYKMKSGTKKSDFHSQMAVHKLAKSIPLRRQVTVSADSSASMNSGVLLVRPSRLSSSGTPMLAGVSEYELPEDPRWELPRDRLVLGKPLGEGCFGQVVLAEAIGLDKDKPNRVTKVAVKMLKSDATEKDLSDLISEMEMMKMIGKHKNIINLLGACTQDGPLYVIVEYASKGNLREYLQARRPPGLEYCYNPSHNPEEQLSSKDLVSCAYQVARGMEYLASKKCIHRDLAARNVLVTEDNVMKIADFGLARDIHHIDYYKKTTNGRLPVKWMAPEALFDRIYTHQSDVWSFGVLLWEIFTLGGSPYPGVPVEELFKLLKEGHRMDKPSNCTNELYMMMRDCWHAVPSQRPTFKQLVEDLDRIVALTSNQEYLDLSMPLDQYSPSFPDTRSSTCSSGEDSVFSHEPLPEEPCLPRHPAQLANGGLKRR

Take `COc1cc(OC)c(F)c(-c2cc3[nH]nc(-c4cc5c(cc4F)C(=O)N(C(C)C)C5)c3cn2)c1F` [Example 65, 5-[6-(2,6-Difluoro-3,5-dimethoxyphenyl)-1H-pyrazolo[4,3-c]pyridin-3-yl]-6-fluoro-2-isopropylisoindolin-1-one]: the 50% inhibitory concentration (IC50) in test [1], in test [2] and in test [3] was < 100 nM in each case.
Turning to `COc1cc(OC)c(Cl)c(-c2ncc3c(-c4ccc5c(c4)CC(C(=O)N(C)C)O5)n[nH]c3n2)c1Cl` (stereo not drawn) [Example 1, 5-[6-(2,6-Dichloro-3,5-dimethoxyphenyl)-1H-pyrazolo[3,4-d]pyrimidin-3-yl]-N,N-dimethyl-2,3-dihydro-1-benzofuran-2-carboxamide], the IC50 in test [1], in test [2] and in test [3] was < 100 nM throughout.
In the case of `COc1cc(OC)c(Cl)c(-c2ncc3c(-c4ccc5c(c4)CN(C4CC4)C5=O)n[nH]c3n2)c1Cl` [Example 74, 2-Cyclopropyl-5-[6-(2,6-dichloro-3,5-dimethoxyphenyl)-1H-pyrazolo[3,4-d]pyrimidin-3-yl]isoindolin-1-one], the IC50 in test [1], in test [2] and in test [3] was < 100 nM each time.
In the case of `COc1cc(OC)c(Cl)c(-c2cc3[nH]nc(-c4cnn(CC(=O)N5CCC(C#N)C5)c4)c3cn2)c1Cl` (stereo not drawn) [Example 47, 1-({4-[6-(2,6-Dichloro-3,5-dimethoxyphenyl)-1H-pyrazolo[4,3-c]pyridin-3-yl]-1H-pyrazol-1-yl}acetyl)pyrrolidine-3-carbonitrile], the concentration for half-maximal inhibition (IC50) in test [1], in test [2] and in test [3] was < 100 nM in each case.
`COc1cc(OC)c(F)c(-c2cc3[nH]nc(-c4ccc5c(c4)CN(CC(C)O)C5=O)c3cn2)c1F` (stereo not drawn) [Example 64, 5-[6-(2,6-Difluoro-3,5-dimethoxyphenyl)-1H-pyrazolo[4,3-c]pyridin-3-yl]-2-(2-hydroxypropyl)isoindolin-1-one]: the IC50 in test [1], in test [2] and in test [3] was < 100 nM throughout.
Consider `COc1cc(OC)c(F)c(-c2cc3[nH]nc(-c4ccc(N5CCN(C)CC5)cc4)c3cn2)c1F` [Example 25, 6-(2,6-Difluoro-3,5-dimethoxyphenyl)-3-[4-(4-methylpiperazin-1-yl)phenyl]-1H-pyrazolo[4,3-c]pyridine], for which the IC50 in test [1], in test [2] and in test [3] was < 100 nM throughout.
As for `COc1cc(OC)c(F)c(-c2cc3[nH]nc(-c4ccc5c(c4)CN(C(C)C)C5=O)c3cn2)c1F` [Example 53, 5-[6-(2,6-Difluoro-3,5-dimethoxyphenyl)-1H-pyrazolo[4,3-c]pyridin-3-yl]-2-isopropylisoindolin-1-one], the IC50 in test [1], in test [2] and in test [3] was < 100 nM throughout.
Regarding `COc1cc(OC)c(Cl)c(-c2cc3[nH]nc(-c4cnn(CC(=O)N5CCN(C)CC5)c4)c3cn2)c1Cl` [Example 41, 6-(2,6-Dichloro-3,5-dimethoxyphenyl)-3-{1-[2-(4-methylpiperazin-1-yl)-2-oxoethyl]-1H-pyrazol-4-yl}-1H-pyrazolo[4,3-c]pyridine], the half-maximal inhibitory concentration (IC50) in test [1], in test [2] and in test [3] was < 100 nM each time.
For the compound `CNC(=O)Cn1cc(-c2n[nH]c3cc(-c4c(Cl)c(OC)cc(OC)c4Cl)ncc23)cn1` [Example 36, 2-{4-[6-(2,6-Dichloro-3,5-dimethoxyphenyl)-1H-pyrazolo[4,3-c]pyridin-3-yl]-1H-pyrazol-1-yl}-N-methylacetamide], the IC50 in test [1], in test [2] and in test [3] was < 100 nM throughout.
Regarding `COc1cc(OC)c(F)c(-c2ncc3c(-c4ccc5c(c4)CN(CC(C)O)C5=O)n[nH]c3n2)c1F` (stereo not drawn) [Example 82, 5-[6-(2,6-Difluoro-3,5-dimethoxyphenyl)-1H-pyrazolo[3,4-d]pyrimidin-3-yl]-2-(2-hydroxypropyl)isoindolin-1-one], the IC50 in test [1], in test [2] and in test [3] was < 100 nM in each case.
On to `COc1cc(OC)c(F)c(-c2ncc3c(-c4ccc5c(c4)CN([C@H]4CC[C@H](O)CC4)C5=O)n[nH]c3n2)c1F` [Example 15, 5-[6-(2,6-Difluoro-3,5-dimethoxyphenyl)-1H-pyrazolo[3,4-d]pyrimidin-3-yl]-2-(trans-4-hydroxycyclohexyl)isoindolin-1-one], for which the 50% inhibitory concentration (IC50) in test [1], in test [2] and in test [3] was < 100 nM each time.
On to `COC(=O)c1cc2cc(-c3n[nH]c4cc(-c5c(F)c(OC)cc(OC)c5F)ncc34)ccc2o1` [Example 92, Methyl 5-[6-(2,6-difluoro-3,5-dimethoxyphenyl)-1H-pyrazolo[4,3-c]pyridin-3-yl]-1-benzofuran-2-carboxylate], for which the half-maximal inhibitory concentration (IC50) in test [1], in test [2] and in test [3] was < 100 nM in each case.
On to `COc1cc(OC)c(F)c(-c2ncc3c(-c4ccc5c(c4)CN(CCN(C)C)C5=O)n[nH]c3n2)c1F` [Example 80, 5-[6-(2,6-Difluoro-3,5-dimethoxyphenyl)-1H-pyrazolo[3,4-d]pyrimidin-3-yl]-2-[2-(dimethylamino)ethyl]isoindolin-1-one], for which the half-inhibitory concentration (IC50) in test [1], in test [2] and in test [3] was < 100 nM in each case.
Turning to `COc1cc(OC)c(Cl)c(-c2ncc3c(-c4cnn(C(C)C#N)c4)n[nH]c3n2)c1Cl` (stereo not drawn) [Example 73, 2-{4-[6-(2,6-Dichloro-3,5-dimethoxyphenyl)-1H-pyrazolo[3,4-d]pyrimidin-3-yl]-1H-pyrazol-1-yl}propanenitrile], the half-inhibitory concentration (IC50) in test [1], in test [2] and in test [3] was < 100 nM each time.
Regarding `COc1cc(OC)c(F)c(-c2ncc3c(-c4ccc(OCCN(C)C)cc4)n[nH]c3n2)c1F` [Example 20, 2-{4-[6-(2,6-Difluoro-3,5-dimethoxyphenyl)-1H-pyrazolo[3,4-d]pyrimidin-3-yl]phenoxy}-N,N-dimethylethanamine], the half-inhibitory concentration (IC50) in test [1], in test [2] and in test [3] was < 100 nM in each case.
`COc1cc(OC)c(Cl)c(-c2cc3[nH]nc(-c4ccc5c(c4)N(C)C(=O)CO5)c3cn2)c1Cl` [Example 31, 6-[6-(2,6-Dichloro-3,5-dimethoxyphenyl)-1H-pyrazolo[4,3-c]pyridin-3-yl]-4-methyl-2H-1,4-benzoxazin-3(4H)-one]: the 50% inhibitory concentration (IC50) in test [1] was < 100 nM; in test [2] it was 100 to 500 nM; in test [3], < 100 nM.
In the case of `COc1cc(OC)c(Cl)c(-c2cc3[nH]nc(-c4cnn(CC(=O)N5CC[C@H](F)C5)c4)c3cn2)c1Cl` [Example 48, 6-(2,6-Dichloro-3,5-dimethoxyphenyl)-3-(1-{2-[(3S)-3-fluoropyrrolidin-1-yl]-2-oxoethyl}-1H-pyrazol-4-yl)-1H-pyrazolo[4,3-c]pyridine], the IC50 in test [1], in test [2] and in test [3] was < 100 nM in each case.
For the compound `COc1cc(OC)c(F)c(-c2ncc3c(-c4ccnc(N5CCN(C)CC5)c4)n[nH]c3n2)c1F` [Example 19, 6-(2,6-Difluoro-3,5-dimethoxyphenyl)-3-[2-(4-methylpiperazin-1-yl)pyridin-4-yl]-1H-pyrazolo[3,4-d]pyrimidine], the IC50 in test [1], in test [2] and in test [3] was < 100 nM each time.
Turning to `COc1cc(OC)c(Cl)c(-c2cc3[nH]nc(-c4cnn(C[C@H](C)O)c4)c3cn2)c1Cl` [Example 51, (2S)-1-{4-[6-(2,6-Dichloro-3,5-dimethoxyphenyl)-1H-pyrazolo[4,3-c]pyridin-3-yl]-1H-pyrazol-1-yl}propan-2-ol], the IC50 in test [1], in test [2] and in test [3] was < 100 nM in each case.
Take `COc1cc(OC)c(F)c(-c2cc3[nH]nc(-c4ccc5c(c4)CCC(C(=O)N(C)C)O5)c3cn2)c1F` (stereo not drawn) [Example 57, 6-[6-(2,6-Difluoro-3,5-dimethoxyphenyl)-1H-pyrazolo[4,3-c]pyridin-3-yl]-N,N-dimethylchromane-2-carboxamide]: the 50% inhibitory concentration (IC50) in test [1], in test [2] and in test [3] was < 100 nM throughout.
For `COc1cc(OC)c(F)c(-c2cc3[nH]nc(-c4ccc5c(c4)CN(C4CCN(C)CC4)C5=O)c3cn2)c1F` [Example 66, 5-[6-(2,6-Difluoro-3,5-dimethoxyphenyl)-1H-pyrazolo[4,3-c]pyridin-3-yl]-2-(1-methylpiperidin-4-yl)isoindolin-1-one], the IC50 in test [1], in test [2] and in test [3] was < 100 nM each time.

Broadly, the IC50 is the midpoint of a concentration-inhibition curve.
